The test system of one assay is MCF7. Put plainly: Soft agar colony formation disk diffusion assay. The format is cell-based, human. From the text:
(§1) A more elaborate version of this fundamental assay, the soft agar colony formation disk diffusion assay was used. This assay defines the relative activity of one particular drug versus a tumoral cell line type. The effect of the test drug against tumoral cells could be measured by its inhibitory capacity against colony formation after the delivery of the compound, in different concentrations on an filter disk(4). A modified technique of this assay was used in order to investigate the antiproliferative activity of candidate compounds. Tumoral cells from solid tumors and ascitic lines were plated separately in a two layer agar matrix. Cell lines to be tested were suspended in an upper layer of 0.4% Noble agar (Difco#00142-01) in RPMI-1066 (Gibco#3201875) at a yield varying between 10^4 to 2×10^5 cells per 60 mm Petri dish. Plating efficiency was determined for each line in order to achieve an optimal number of colonies per dish. Plates were examined before drug administration to confirm a uniform dispersion of single cells. The bottom layer consisted of 0.8% Noble agar, 0.8% Tryptic Soy Broth (difco#0037001)in CMRL-1066/Fischer's. The bottom layers were used within 2 and 9 days of preparation. Plated dishes (bottom layer of agar, upper layer of cells and administered drug were incubated in humidified atmosphere at 37° C., 5% CO2 for 10-20 days depending upon the time necessary to observe adequate colonies (defined as a cell aggregate of more than 50 cells) both control and drug inhibited. Drugs were administered on a paper filter disk (Whatman No. 1) of 6.5 mm diameter placed on the upper layer at 1/3 distance from the edge of the dish. The anti-clonogenic activity of the compounds was measured as the zone of inhibition from the disk edge to the most proximal colonies. This zone of inhibition was checked on an inverted microscope (40×) and was measured with a micrometer mounted in the eyepiece. The ocular micrometer was calibrated with a stage micrometer set for a particular combination of ocular and objective lenses. […] We made a modification of the initial technique by not plating a solid tumor and a leukemia simultaneously in the same Petri dish. Anti-clonogenic tests performed on leukemia cell line have helped in the discovery of the majority of current clinically used cytostatic drugs. Our tests on solid tumor lines (animal or human) may help define active compounds with solid tumor specificity. […] HUMAN TUMORS. […] LS180 (13) and BE1(14) were obtained from the Oncology Dept. of the Montreal General Hospital. […] Cell lines were routinely passaged twice a week by trypsinization and maintained in 25, or 75-sq. cm Falcon Plastic flasks at 37° C., 5% CO2 in humidified atmosphere. Both compounds were dissolved in DMSO (1 mg/100 ul) and brought to final volume (250 ul) with Millipore deionized sterile water. Further dilutions were made with […] volume of 25 ul of freshly prepared solution was placed on the filter disk and allowed to dry.
In general terms: In agar diffusion tests the substance spreads into inoculated agar from a disc or well.

Another assay deals with MCF7/ADR. Put plainly: Soft agar colony formation disk diffusion assay. The format is cell-based, human.
Description: as §1

The next assay concerns tumor cell lines. As to the kind of experiment: Tumor clonogenic assay, overall. The format is cell-based. From the text:
For the IN VITRO test, we chose a tumor clonogenic assay which measures the ability of tumoral cells to form colonies (multicellular growth units) as a result of cell division in semisolid agar support (2,3). A more elaborate version of this fundamental assay, the soft agar colony formation disk diffusion assay was used. This assay defines the relative activity of one particular drug versus a tumoral cell line type. The effect of the test drug against tumoral cells could be measured by its inhibitory capacity against colony formation after the delivery of the compound, in different concentrations on an filter disk(4).
A modified technique of this assay was used in order to investigate the antiproliferative activity of candidate compounds. Tumoral cells from solid tumors and ascitic lines were plated separately in a two layer agar matrix. Cell lines to be tested were suspended in an upper layer of 0.4% Noble agar (Difco#00142-01) in RPMI-1066 (Gibco#3201875) at a yield varying between 10^4 to 2×10^5 cells per 60 mm Petri dish. Plating efficiency was determined for each line in order to achieve an optimal number of colonies per dish. Plates were examined before drug administration to confirm a uniform dispersion of single cells. The bottom layer consisted of 0.8% Noble agar, 0.8% Tryptic Soy Broth (difco#0037001)in CMRL-1066/Fischer's. The bottom layers were used within 2 and 9 days of preparation. Plated dishes (bottom layer of agar, upper layer of cells and administered drug were incubated in humidified atmosphere at 37° C., 5% CO2 for 10-20 days depending upon the time necessary to observe adequate colonies (defined as a cell aggregate of more than 50 cells) both control and drug inhibited. Drugs were administered on a paper filter disk (Whatman No. 1) of 6.5 mm diameter placed on the upper layer at 1/3 distance from the edge of the dish. The anti-clonogenic activity of the compounds was measured as the zone of inhibition from the disk edge to the most proximal colonies. This zone of inhibition was checked on an inverted microscope (40×) and was measured with a micrometer mounted in the eyepiece. The ocular micrometer was calibrated with a stage micrometer set for a particular combination of ocular and objective lenses.
200 units of activity are equivalent to 6.5 mm distance from the disk edge to the first colonies (5). […] We made a modification of the initial technique by not plating a solid tumor and a leukemia simultaneously in the same Petri dish. Anti-clonogenic tests performed on leukemia cell line have helped in the discovery of the majority of current clinically used cytostatic drugs. Our tests on solid tumor lines (animal or human) may help define active compounds with solid tumor specificity. This specific activity would be indicated by a higher level of cloning inhibition in solid tumors versus leukemias (6).

The next assay concerns tumor. The following applies: cited from earlier work.
A further assay has as its system bacteria and fungi. To be noted: cited from earlier work.

For the compound `COC(=O)[C@H]1CC2=C(C(=O)c3cc4ccccc4c(O)c3C2=O)[C@H](O[C@H]2C[C@H](NC(=O)C(F)(F)F)[C@H](O)[C@H](C)O2)O1` [BCH-706], the zone of inhibition was found to be 103.7 ± 25.5 Zone Units in the assay with MCF7 (10 μg/DISK), 213.5 ± 43.1 Zone Units in the assay with MCF7 (100 μg/DISK), 91.5 ± 8.6 Zone Units in the assay with MCF7/ADR (10 μg/DISK) and 183.0 Zone Units with MCF7/ADR (100 μg/DISK). For the same compound, the “cross resistance with adriamycin, MCF7/ADR vs MCF7” value in the assay with MCF7/ADR is “lack of cross resistance with adriamycin”. Further, the “activity and specificity in words” value in the assay with tumor cell lines is on record as “most active”.

For the compound `CC1OC2CC(=O)OC2C2=C1C(=O)c1c(O)c3c(c(O)c1C2=O)C1CC(O)C3(O)C(C)O1` (stereo not shown) [Granaticin], the antitumor activity result in the assay on tumor is listed as “antitumor activity”.

Take `CC(=O)N1Cc2c(O)c3c(c(O)c2C(O[C@H]2C[C@H](NC(=O)C(F)(F)F)[C@H](O)[C@H](C)O2)C1)C(=O)c1ccccc1C3=O` (stereo partly shown) [N-(trifluoroacetyl)-4-demethoxy-9-azadaunorubicin]: the antitumor activity result with tumor is “no antitumor activity”.

`CC1OC2OC(=O)OC2C2=C1C(=O)c1c(O)cccc1C2=O` (stereo not shown) [kalafungin]: the “antibacterial and antifungal activity” value with bacteria and fungi is reported as “potent antibacterial as well as antifungal activity”.

As for `C[C@@H]1O[C@@H](CC(=O)O)CC2=C1C(=O)c1c(O)cccc1C2=O` [nanaomycin A], the “antibacterial and antifungal activity” value with bacteria and fungi was “potent antibacterial as well as antifungal activity”.

(Values after patent US5593970A, “Heterocyclic anthracycline analogs” (priority 1994, dated 1997).)
